# Patent publication US6365621B1, “Remedies or preventives for intractable epilepsy” (Pharmaceutical Co., Ltd., priority 1998, dated 2002)
# “And” between values parts separate entries of the source, which are not always exact repeats. Equal entries are not always repeated. Where two headings read alike, the source gives them in different places.
# Tested on: kainate-induced amygdala seizures
# Assay type: in vivo, rat
# Experimental: [Method for measuring an electrophysiological effect] The following operation was performed by use of 19 Wistar male rats (Japan SLC Co.) each having a weight of 250-350 g. Each rat was anesthetized by pentobarbital and fixed in a stereotaxic apparatus. […] Subsequently, a bipolar depth electrode having a diameter of 0.2 mm were inserted into bilateral amygdala (A, +5.0; L, +−5.0; D, −3.0) and hippocampus (A, +3.0; L, +−3.2; D, +1.5). Screw electrodes were set at the left sensorimotor area (A, +1.0 (from bregam); L, +−2.5; D, 0.5 (from dura)), frontal sinus, and occipital median. The electrodes were connected to sockets, and the cannula, the electrodes, and the sockets were fixed on the cranium by use of dental cement. Seven days after operation, 1 μL of a solution of kainic acid dissolved in phosphoric acid buffer (1 mg/ml) was injected through the cannula (rate: […]) (n=12), so as to induce limbic system seizures. The electrodes were connected to an electroencephalograph, and the behavior of the rat in a cage was observed. An electroencephalogram was recorded by use of the electrode at the frontal sinus serving as an indifferent electrode and the electrode at the occipital median serving as ground. The behavior and electroencephalogram were simultaneously recorded by use of a video electroencephalogram recorder based on an electroencephalograph (SYNAFIT 1000; NEC San-ei Instruments, LTD.).
# One to two hours after the injection of kainic acid, when a limbic system seizure was in status epilepticus, nefiracetam dissolved in saline (10 mg/mL) was slowly injected into a caudal vein in an amount selected from 10, 50, 100, and 200 mg/kg (n=12). The same amount of saline was injected into a vein of rats of the control group (n=7). Subsequently, behavior and electroencephalograms of the rat were continuously recorded for at least eight hours, followed by two-hour recording after 24 hours, 48 hours, and 72 hours. Changes in clinical seizure and electroencephalogram observations just after the injection of the nefiracetam solution or saline, and occurrence of seizures and electroencephalogram observations after 24, 48, and 72 hours were measured, and the results were evaluated on the basis of the comparison.
# [1] = 10 mg/kg i.v., EEG, individual rat
# [2] = 50 mg/kg i.v., EEG, individual rat
# [3] = 100 mg/kg i.v., EEG, individual rats
# [4] = 200 mg/kg i.v., EEG, individual rats
# [5] = 200 mg/kg i.v., individual rats
# Throughout, for Spikes from the amygdala after 24 h: key: (+): effective; (−): ineffective.
# Throughout, for Spikes from the amygdala after 48 h: key: (+): effective; (−): ineffective.
# Throughout, for Spikes from the amygdala after 72 h: key: (+): effective; (−): ineffective.
# Throughout, for Spikes from the amygdala just after intravenous injection: key: (+): effective; (−): ineffective.
compound,measurement,setting,value
"Cc1cccc(C)c1NC(=O)CN1CCCC1=O [nefiracetam, N-(2,6-dimethylphenyl)-2-(2-oxo-1-pyrrolidinyl)acetamide]",Disappearance of seizures intravenous injection,"10 mg/kg i.v. during status epilepticus, individual rat",−
same,Spikes from the amygdala after 24 h,[1],+
same,Spikes from the amygdala just after intravenous injection,[1],+
same,Sedative action,"10 mg/kg i.v., individual rat",−
same,Disappearance of seizures intravenous injection,"50 mg/kg i.v. during status epilepticus, individual rat",−
same,Spikes from the amygdala after 24 h,[2],+
same,Spikes from the amygdala just after intravenous injection,[2],+
same,Sedative action,"50 mg/kg i.v., individual rat",−
same,Duration of sedative action after injection,100 mg/kg i.v.,30 to 60 min
same,Disappearance of seizures intravenous injection,"100 mg/kg i.v. during status epilepticus, individual rats",−
same,Spikes from the amygdala after 24 h,[3],+
same,Spikes from the amygdala just after intravenous injection,[3],+
same,Sedative action,"100 mg/kg i.v., individual rats",+
same,Duration of sedation from just after the injection,"200 mg/kg and 100 mg/kg i.v., approximately",60 to 90 min
same,Rats in which seizures were not suppressed (behavior and electroencephalogram),200 mg/kg i.v.,3 out of the 8
same,Disappearance of seizures intravenous injection,"200 mg/kg i.v. during status epilepticus, individual rats",+ (5×) and − (3×)
same,Spikes from the amygdala after 24 h,[4],− (3×) and + (4×)
same,Spikes from the amygdala after 48 h,[4],− (3×) and + (3×)
same,Spikes from the amygdala after 72 h,[4],− (3×) and + (3×)
same,Spikes from the amygdala just after intravenous injection,[4],− (4×) and + (4×)
same,Rats in which spikes corresponding to the amygdala disappeared from electroencephalogram,"200 mg/kg i.v., among the 5 rats whose seizures disappeared",4 out of the 5
same,Disappearance period of seizures after intravenous injection,[5],5 min and 35 min
same,Sedative action,[5],+
same,Death after intravenous injection (time),"200 mg/kg i.v., rat N5",25 min
same,Rats in which seizures disappeared after injection,"200 mg/kg i.v., seizures later reappeared",5 out of 8
same,Changes in paroxysmal behavior or electroencephalograms,"10, 50, or 100 mg/kg i.v. during status epilepticus",no apparent changes
